Values of other authors, collected in patent US12545694B2, “Cannabidiol derivatives, preparation method thereof and use thereof” (CHENGDU BAIYU PHARMACEUTICAL CO., LTD., priority 2020, dated 2026).

Details: human

For C=C(C)[C@@H]1CCC(C)=C[C@H]1c1c(O)cc(CCCCC)cc1O [CBD, cannabidiol], the oral bioavailability is listed as “about 6%”.
